Data on one compound can be found in patent US20180185374A1, “INHIBITORS OF MTOR KINASE AS ANTI-VIRAL AGENTS” (THE TRUSTEES OF PRINCETON UNIVERSITY, priority 2009, published 2018).

One data set relates to rpS6. The data set is described as follows: rpS6 phosphorylation in MCMV-infected MEFs, Western blot. It counts as cell-based, mouse. Particulars: 48 hpi; rapamycin 20 nM, Torin1 250 nM, LY294002 20 μM. The protocol: (§1) FIG. 5. […] Fresh serum-free medium containing drugs was added every other day. At the indicated times, cell-free supernatants were harvested, and the amount of virus in the supernatant was quantified by the TCID50 method. Error bars represent the standard errors of the means form two independent experiments performed in duplicate. […] At 48 hpi the phosphorylation state of the indicated mTORC1 targets was analyzed by a Western blot assay by using antibodies to phosphorylated targets (4EBP1-PT^37/46 and rpS6-PS^235/6) and total proteins. The results are representative of three independent experiments.
The identification of the functional roles of proteins in the mTOR signaling pathway has been facilitated by the generation of knockout mouse strains lacking individual mTOR components. For example, the availability of murine embryonic fibroblasts (MEFs) lacking the essential mTORC2 component Rictor led to the definitive identification of mTORC2 as the kinase complex responsible for the complete activation of Akt. We used murine cytomegalovirus (MCMV) and several MEF lines deficient for mTOR signaling pathway components to test for a possible contribution of mTORC2 to rapamycin-resistant phosphorylation events. […] Also as observed for HCMV (FIG. 4A), MCMV infection induced mTORC1 activity, as measured by the increased phosphorylation of rpS6. […]
(In general: In western blotting, separated proteins are transferred to a membrane and probed.)

The subject of data set [1] is HCMV. Kind of data set: UL99 late transcript level by qPCR. The data set is classed as cell-based, human cytomegalovirus. Particulars: rapamycin 20 nM, Torin1 250 nM; 3 PFU/cell. (In general: Quantitative PCR measures a nucleic acid by following its amplification.)
A further data set concerns cells. Particulars: concentrations of up to 500 nM; previous reports; cited from earlier work.
Another data set deals with MCMV. The data set is described as follows: MCMV replication in MEFs, cell-free virus by TCID50. It counts as cell-based, murine cytomegalovirus. Particulars: Torin1 250 nM.
Data set [2] concerns HCMV. Kind of data set: HCMV entry: cell-associated viral DNA at 2 hpi by real-time PCR. The data set is classed as cell-based, human cytomegalovirus. Particulars: 250 nM, 24 h pretreatment or after adsorption, 3 PFU/cell. On the procedure: FIG. 2. […] Serum-starved confluent fibroblasts were infected with HCMV at a multiplicity of 3 PFU/cell. […] Control cultures received the vehicle in which Torin1 was dissolved (NT). At 2 hpi cells were harvested, and cell-associated viral DNA was quantified by real-time PCR analysis. Error bars represent the standard errors of the means from two independent experiments performed in duplicate. […] The level of IE1 was determined at 6 hpi by a Western blot assay using an IE1-specific monoclonal antibody. The image is representative of two independent experiments. […] The expression of a GFP marker gene present in the viral genome was monitored at 24 h after infection in the presence or absence of drug.
Determination of viral DNA and transcript accumulation in infected cells. The accumulation of viral DNA during HCMV infection was monitored by quantitative PCR (qPCR) as described previously (Terhune, et al. (2007) J. Virol. 81:3109-3123).
Briefly, primary human fibroblasts were infected with BADinGFP at a multiplicity of 0.05 PFU/cell. At the indicated times, cells were harvested by scraping them into medium and were stored as frozen cell pellets until analysis. Cell pellets were resuspended in 500 μl of a solution containing 400 mM NaCl, 10 mM Tris (pH 7.5), and 10 mM EDTA. […] For each sample, DNA was quantified by using a NanoDrop spectrophotometer (Thermo Scientific). […]

In data set [3] the test system is HCMV. The data set is described as follows: HCMV multistep growth in serum-starved human fibroblasts, cell-free virus by TCID50. It counts as cell-based, human cytomegalovirus.
In a further data set the test system is 4EBP1. The data set is described as follows: 4EBP1 phosphorylation in MCMV-infected MEFs, Western blot. It counts as cell-based, mouse. Particulars: Torin1 250 nM. The protocol: as §1
FIG. 6. mTORC2 and its target, Akt, are not the source of rapamycin-resistant mTOR activity. […] At 6 days post infection the amount of MCMV in cell-free supernatants was determined by the TCID50 method. […] At 48 hpi, the phosphorylation state of mTORC1 targets was assessed by Western blotting using antibodies specific for the indicated proteins. (C) Confirmation of the genotype of Rictor-null MEFs. Total DNA was isolated from wild-type and Rictor-null MEFs, and the genotype was confirmed by use of PCR. (D) Same as above (A) except that Akt1- and Akt2-null MEFs were used. (E) Same as above (B) except that Akt1- and Akt2-null MEFs were used. For B and E, the error bars represent the standard errors of the means from at least two independent experiments, each performed in duplicate. For […], tubulin was assayed as a loading control. […] Protein from wild-type or mutant MEFs was analyzed by Western blotting by use of an antibody specific for Akt.
The identification of the functional roles of proteins in the mTOR signaling pathway has been facilitated by the generation of knockout mouse strains lacking individual mTOR components. […] Also as observed for HCMV (FIG. 4A), MCMV infection induced mTORC1 activity, as measured by the increased phosphorylation of rpS6. […]
We first investigated the requirement for mTORC2 for the replication of MCMV. […] Finally, that 4EBP1 was not detected in lysates of these cells by Western blot assay confirmed the phenotype of the MEFs.

As for `CCC(=O)N1CCN(c2ccc(-n3c(=O)ccc4cnc5ccc(-c6cnc7ccccc7c6)cc5c43)cc2C(F)(F)F)CC1` [Torin1], in the data set with rpS6, the “phosphorylation of rpS6 in MCMV-infected MEFs” value is given as “completely inhibited”. The “levels of UL99 mRNA” value in the data set with HCMV [1] is “decreased the levels of UL99 mRNA”. In addition, the cell killing entry in the data set on cells was “does not kill cells”. Also, the MCMV replication result in the data set on MCMV (4EBP1-null MEFs, rapamycin 20 nM, 6 days post infection) is “no longer capable of inhibiting”; with MCMV (Akt1/Akt2-null MEFs), “Torin-sensitive”; in the data set on MCMV (Rictor-null MEFs, 6 days post infection), “effectively inhibited”; with MCMV (wild-type MEFs, 0.05 PFU/cell, rapamycin 20 nM) it was “inhibited MCMV replication”. Moreover, the “level of cell-associated viral DNA” value in the data set with HCMV [2] is listed as “not influenced”. In the data set on HCMV [3] (day 10, 0.05 PFU/cell, rapamycin 20 nM, Torin1 250 nM), the “reduction of HCMV yield” value was “about 160 fold”. Besides, in the data set with HCMV [3] (read-out: 50% inhibitory concentration (IC50) for production of HCMV progeny, 8 days post infection), the IC50 is approximately 0.06 µM. The 4EBP1 phosphorylation result is “inhibited” with 4EBP1 (Akt1/Akt2-null MEFs) and “effectively inhibited” in the data set with 4EBP1 (Rictor-null MEFs, 48 hpi). In addition, in the data set with 4EBP1 (wild-type MEFs, 48 hpi, rapamycin 20 nM, LY294002 20 μM), the “phosphorylation of 4EBP1 in MCMV-infected MEFs” value is “inhibited”.
